Measurements published in patent publication US7935525B2, “Inhibition of ATF2 activity to treat cancer” (Mount Sinai School of Medicine, priority 2001, dated 2011).
No end group written: not given here.

Tests used:
[1] = system: SW1 tumors; assay: Doxycycline-inducible peptide expression in existing SW1 tumors; type: in vivo, C3H mice
Text: Constructs. ATF2 peptides were cloned into HA-penetratin pcDNA3 vector as described above. For the doxycycline inducible system peptide II was cloned in frame with HA and Penetratin into SacII and XbaI sites of the PUHD10-3 vector (Gossen M., et al., Proc. Natl. Acad. Sci. USA. 1992, 89(12):5547-51). The PeF1PrtTA vector (Gopalkrishnan R. V., et al., Nucleic Acids Res. 1999; 27(24):4775-82) places the rtTA gene under transcriptional control of the human EF-10 promoter. Replication deficient adenovirus expressing peptide II was generated by subcloning the ATF2 peptide cDNA into the corresponding adenovirus vector as previously described (Chen S. H., et al., Proc. Natl. Acad. Sci. USA 1994; 91(8):3054-7).
Derivation of stable cell lines. Selection of clones stably expressing the rtTA construct was carried out in SW-1 cells in the presence of […] of G418. After the selection period 12 single colonies were picked, expanded and analyzed for activity by assaying for Luciferase activity (Gopalkrishnan R. V., et al., Nucleic Acids Res. 1999; 27(24):4775-82). […] The positive clone, which expresses the rtTA cDNA, was contransfected with PUHDI0-3 peptide II and Pbabe Puro vectors that allow one to establish inducible expression of the respective genes (Gopalkrishnan et al., supra) and single clones were selected with […] of Puromycin. Positive clones were selected by Western blotting.
Tumor growth and metastasis evaluation in vivo. Cell lines established in culture to constitutively or inducibly express the peptide were injected into mice subcutaneously (S.C.). LU1205, FEMX and SW-1 cells that expressed control or peptide II were trypsinized, resuspended in PBS and injected SC (1×10^6) into 6-7 week old mice in the lower flank. When the tumor reached the size of about 50 mm^3, 5 μM of SB203580 was injected into four areas of the LU1205 tumors every 4 days during a 2-week period. For FEMX tumors UCN-01 (2.5 mg/kg) was fed by gavage twice a day, three times per week for a total of 2 weeks. Tumor growth was monitored every two days. […]

[2] = system: ATF2; assay: ATF2 phosphorylation in peptide-expressing melanoma cells; type: cell-based, human; settings: vs control vector cells
[3] = system: ATF2 target sequence (c-Jun promoter motif TGACACTA); assay: Electrophoretic mobility shift assay with labeled AP1 oligonucleotide; type: binding, mouse; settings: control vs peptide-expressing SW1 cells
Procedure: Electrophoretic mobility shift assays were performed as described. (Ivanov and Ronada, J Biol Chem 1999; 274(20):14079-89). GST binding assays were performed with GST-peptide II as described (Adler et al., Proc Natl Acad Sci USA 1995; 92 10585-9). SW1 cells expressing control vector or peptide II were subjected to FACS analysis following their incubation with antibodies to the cell surface receptor of FAS as described above.

[4] = system: Fas protein; assay: Western blot of overall Fas protein in melanoma cells; type: cell-based; settings: peptide-expressing melanoma cells
[5] = system: Fas promoter; assay: Fas promoter activity (-460 Fas promoter region); type: cell-based, human; settings: peptide-expressing LU1205
[6] = system: SW1 melanoma tumors; assay: Growth and metastasis of SW1 tumors constitutively expressing peptide, C3H mice; type: in vivo
Procedure: Tumor growth and metastasis evaluation in vivo. Cell lines established in culture to constitutively or inducibly express the peptide were injected into mice subcutaneously (S.C.). LU1205, FEMX and SW-1 cells that expressed control or peptide II were trypsinized, resuspended in PBS and injected SC (1×10^6) into 6-7 week old mice in the lower flank. When the tumor reached the size of about 50 mm^3, 5 μM of SB203580 was injected into four areas of the LU1205 tumors every 4 days during a 2-week period. For FEMX tumors UCN-01 (2.5 mg/kg) was fed by gavage twice a day, three times per week for a total of 2 weeks. Tumor growth was monitored every two days. SW-1 cells expressing peptide II under tet-inducible vector were injected SC (1×10^6). When tumors reached a size of about 50 mm^3, the mice received doxycycline in their drinking water ([…]) for a total of 2-4 weeks. At the end of the experiment, the tumors were excised and weighed. The lungs and other organs were subjected to histopathological examination to detect metastatic lesions.

[7] = system: LU1205 cells; assay: Apoptosis by FACS (hypodiploid fraction); type: cell-based, human; settings: peptide-expressing LU1205
Procedure: Treatment and apoptosis studies of stably transfected melanoma cells. Cells were exposed to UVC at 75 J/m^2 as previously described (Ronai, Z., et al., Oncogene 1998; 16:523-531). SB203580 (1-10 μM) (Calbiochem®, San Diego, Calif.), NCS (50-100 ng/ml) and mitomycin C (MMC) (0.2-1 μM) were used to treat melanoma cells. Flow cytometric analysis was performed on a FACSCalibur™ flow cytometer (Becton Dickinson) using CellQuest™ software as described previously (Nicoletti et al., J. Immunol. Methods 1991; 139:271-279). Cells were pelleted and resuspended in 0.5 ml of hypotonic buffer with 0.1% Triton X-100 containing PI (40 μg/ml) and DNase-free RNase A (1 mg/ml). Cells were incubated at 37° C. for 30 min and analyzed on a FACSCalibur™ flow cytometer (Becton Dickinson). The percentage of cells to the left of the diploid G0/1 peak, characteristic of hypodiploid cells that have lost DNA, was defined as the percentage of apoptotic cells. Analysis was performed with light scatter gating. Surface expression of Fas was determined using anti-Fas-PE antibody (PharMingen® CA) and flow cytometric analysis. Cell surface expression is measured as mean fluorescence intensity (MFI).

[8] = system: SW1 cells; assay: Thymidine incorporation (DNA synthesis); type: cell-based, mouse; settings: peptide-expressing vs control cells
[9] = molecular target: p38 (Homo sapiens, UniProt Q16539); assay: In vitro phosphorylation of the peptide; type: biochemical
p38, sequence (Q16539 whole entry): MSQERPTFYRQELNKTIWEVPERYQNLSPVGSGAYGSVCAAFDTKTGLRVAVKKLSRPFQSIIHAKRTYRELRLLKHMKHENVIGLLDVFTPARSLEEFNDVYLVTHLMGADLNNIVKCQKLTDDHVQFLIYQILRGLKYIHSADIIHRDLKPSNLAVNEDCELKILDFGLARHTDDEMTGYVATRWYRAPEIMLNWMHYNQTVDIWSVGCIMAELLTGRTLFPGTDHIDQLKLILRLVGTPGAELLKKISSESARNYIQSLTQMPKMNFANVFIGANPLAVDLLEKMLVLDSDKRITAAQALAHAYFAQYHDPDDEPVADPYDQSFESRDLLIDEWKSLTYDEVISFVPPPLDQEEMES

[10] = system: AP1 complex; settings: previous studies; cited from earlier work

- binding of nuclear extracts to the labeled AP1 oligonucleotide [3]: No significant changes
Substance: peptide II: N-terminal polypeptide fragment of ATF2, amino acid residues 50-100, expressed from pcDNA3 with HA-penetratin tag (EMTLKFGPARNDSVIVADQTPTPTRFLKNCEEVGLFNELASPFENEFKKAS; also: HA-penetratin tag, position not given here; UniProt P15336 50-100, looked up, fragment)
- decrease in the growth rate of tumors ([1]; doxycycline in drinking water from 90 mm^3, 32 days): ~2 fold
- reduction of tumor growth rate ([1]; inducible expression via doxycycline): 50%
- degree of apoptosis in tumors (tunnel assay) ([1]; tumors from doxycycline-fed mice): increase in degree of apoptosis
- ATF2 phosphorylation after UV-treatment ([2]; UV-treated): reduced
- degree of ATF2 phosphorylation ([2]; non-stressed growth conditions): higher degree of ATF2 phosphorylation
- overall level of Fas protein [4]: increase in the overall level of Fas protein
- Fas promoter mediated transcription [5]: increase in Fas-mediated transcription
- tumor size ([6]; 3-week period, control parent tumor 1800 mm^3): 100 mm^3
- tumor size ([6]; SC injection, analyzed three weeks later): very small tumors
- average tumor size ([6]; at 72 days): about 1200 mm^3
- time for which tumor growth was completely blocked ([6]; constitutive expression): up to 35 days
- apoptosis in tumors (tunnel assay) ([6]; excised SW1 tumors): substantially higher level of apoptosis
- metastasis ([6]; monitored up to 72 days): no metastasis was seen
- increase in apoptosis comparable to neo expressing cells ([7]; Adriamycin + verapamil): 10 fold
- increase in degree of apoptosis over control neo cells given Adriamycin and verapamil ([7]; Adriamycin + verapamil): 50%
- apoptotic fraction of UV-treated cells ([7]; UV-C 75 J/m2, 36 h, neo control 15%): 38%
- increase in the degree of cell death ([7]; higher doses (10 μM) of SB203580, 36 h): greater than 6 fold
- increase in cell death ([7]; low doses of SB203580, 36 h): 3 fold
- increase in the sensitivity to UV-induced apoptosis ([7]; treatment with JAK inhibitor AG490): 3 fold
- reduction in DNA synthesis level [8]: 50%
- phosphorylation of the peptide by p38 [9]: Neither JNK nor p38 was found capable of phosphorylating
- inhibition of transcriptional activity mediated from the AP1 complex [10]: 3 fold
